Experimental findings from US6670339B1, “Use of sulfated oligosaccharides in lowering blood triglyceride levels” (The Australian National University, priority 1997, dated 2003) are described below.

Assay [1] addresses T1, bovine milk lipoprotein lipase (Bos taurus, UniProt P11151).
T1 construct: purified from bovine milk as previously described; from tissue; host or cells: bovine milk
T1 sequence (P11151 29-478): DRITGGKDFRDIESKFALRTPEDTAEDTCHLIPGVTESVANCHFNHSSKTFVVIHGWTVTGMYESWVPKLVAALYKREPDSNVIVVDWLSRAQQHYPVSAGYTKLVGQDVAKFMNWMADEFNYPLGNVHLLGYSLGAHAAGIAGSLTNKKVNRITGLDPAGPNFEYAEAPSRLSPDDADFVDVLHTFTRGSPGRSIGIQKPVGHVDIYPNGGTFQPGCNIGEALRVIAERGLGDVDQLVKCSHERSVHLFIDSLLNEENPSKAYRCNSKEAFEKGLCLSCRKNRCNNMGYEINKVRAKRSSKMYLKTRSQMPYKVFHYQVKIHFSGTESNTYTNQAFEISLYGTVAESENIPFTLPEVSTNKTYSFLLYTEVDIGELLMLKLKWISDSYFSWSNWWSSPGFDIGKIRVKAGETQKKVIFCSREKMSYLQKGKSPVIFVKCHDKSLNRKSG
As to the kind of experiment: Inhibition of binding of biotinylated heparin/heparan sulfate to immobilised lipoprotein lipase. The conditions noted are these: for inhibitory activity on lipoprotein lipase binding to heparin/heparan sulfate, in words: summary of Table 1. How it is done:
As a more rapid and direct means of measuring the ability of different sulfated oligosaccharides to release lipoprotein lipase from the endothelium, an in vitro assay for this effect was developed. The assay involved immobilising lipoprotein lipase (10 μg/ml in PBS, 15 hr, 4° C.), purified from bovine milk as previously described^12, in 96 well plastic microplates (50 μl/well). Non-specific binding sites were then blocked by the addition of 200 μl/well of PBS containing 1% (w/v) bovine serum albumin (BSA) for 2 hr at 4° C. Following three washes with 200 μl/well of PBS/0.05% Tween 20 (PBST), 50 μl/well of either biotinylated bovine lung heparin or biotinylated porcine mucosal heparan sulfate (Sigma), used at either 1 or 10 μg/ml, was added and incubated for 2 hr at 4° C. Following three washes with PBST, 50 μl/well of europeum-streptavidin (1 ng/ml in PBS/1% BSA) was added for 1 hr at 4° C., the plate again washed three times with PBST, enhancement solution (50 μl/well) added and bound europeum measured by time resolved fluorescence detection using a Delfia Research Fluorometer (Wallac, Turku, Finland). Inhibition assays measured the ability of different sulfated oligosacchandes to inhibit the binding of biotinylated heparan/heparin sulfate to the immobilised lipoprotein lipase enzyme.

For assay [2], the system named is serum triglyceride levels. Description: Serum triglyceride lowering by glycosaminoglycans and sulfated oligosaccharides in mice. In kind it is in vivo, CBA/h female mice. The conditions noted are these: 50 mg/kg s.c., 2 hours after injection. How it is done:
FIG. 3. Ability of different glycosaminoglycans and sulfated oligosaccharides to lower serum triglyceride levels in CBA mice. Compounds were injected s.c. at a dose of 50 mg/kg, blood samples taken 2 hours later and assayed for triglyceride content. Each histogram is the mean±SEM (n=3) for each treatment.
Mice (CBA/h female mice 8-10 weeks old) were injected s.c. with a range of glycosaminoglycans and sulfated oligosaccharides at a dose of 50 mg/kg and 2 hours later mice were anaesthetised, blood was collected via cardiac puncture and allowed to clot and serum triglyceride levels measured using a commercially available kit (Sigma, Triglyceride—GPO-Trinder). […] The only other compound with some activity was suramin, a sulfonated compound which has previously been used as an angiogenesis and heparanase inhibitor.

The mark [3] stands for this setting: biotinylated bovine lung heparin 1 μg/ml.
[4] abbreviates: biotinylated bovine lung heparin 10 μg/ml.

Like-named read-outs stand apart in the source and are kept apart here.

On to `Cc1ccc(C(=O)Nc2ccc(S(=O)(=O)O)c3cc(S(=O)(=O)O)cc(S(=O)(=O)O)c23)cc1NC(=O)c1cccc(NC(=O)Nc2cccc(C(=O)Nc3cc(C(=O)Nc4ccc(S(=O)(=O)O)c5cc(S(=O)(=O)O)cc(S(=O)(=O)O)c45)ccc3C)c2)c1` [Suramin, reference compound], for which the IC50 in assay [1] (biotinylated bovine lung heparin 1 μg/ml, read-out: IC50, inhibition of binding of Biotinylated Heparin (1 μg/ml) to lipoprotein lipase) is above 77.1 µM; in assay [1] (biotinylated bovine lung heparin 10 μg/ml, read-out: IC50, inhibition of binding of Biotinylated Heparin (10 μg/ml) to lipoprotein lipase), above 77.1 µM. Further, the “inhibitory activity on lipoprotein lipase binding to heparin/heparan sulfate, in words” value in assay [1] is “lacked activity”. Further, in assay [2], the “effect on serum triglyceride levels, in words” value (shortened to “effect”) is “some activity”.

Regarding `O=S(=O)(O)OC[C@H]1O[C@@](COS(=O)(=O)O)(O[C@H]2O[C@H](COS(=O)(=O)O)[C@@H](OS(=O)(=O)O)[C@H](OS(=O)(=O)O)[C@H]2OS(=O)(=O)O)[C@@H](OS(=O)(=O)O)[C@@H]1OS(=O)(=O)O` [Sucrose octasulfate, reference compound], the “IC50, inhibition of binding of Biotinylated Heparin (1 μg/ml) to lipoprotein lipase” value in assay [1] (setting [3]) is above 200 µg/mL. In assay [1], the “inhibitory activity on lipoprotein lipase binding to heparin/heparan sulfate, in words” value is listed as “lacked activity”. In assay [2], the “effect” value is “small but significant enhancement”.

Consider maltohexaose sulfate [Maltohexaose SO4], for which the “IC50, inhibition of binding of Biotinylated Heparin (1 μg/ml) to lipoprotein lipase” value in assay [1] (setting [3]) came to 3 µg/mL. Further, the “IC50, inhibition of binding of Biotinylated Heparin (10 μg/ml) to lipoprotein lipase” value in assay [1] (setting [4]) was determined as 6 µg/mL. Further, in assay [1], the “inhibitory activity on lipoprotein lipase binding to heparin/heparan sulfate, in words” value is listed as “potent inhibitors”. The “effect” value in assay [2] was “significantly lowered triglyceride levels”.

“maltoheptaose sulfate [Maltoheptaose SO4]”: the “IC50, inhibition of binding of Biotinylated Heparin (1 μg/ml) to lipoprotein lipase” value in assay [1] (setting [3]) was determined as 3 µg/mL. The “IC50, inhibition of binding of Biotinylated Heparin (10 μg/ml) to lipoprotein lipase” value in assay [1] (setting [4]) came out at 12 µg/mL. Moreover, the “inhibitory activity on lipoprotein lipase binding to heparin/heparan sulfate, in words” value in assay [1] is recorded as “inhibitory”. The “effect” value in assay [2] is recorded as “significantly lowered triglyceride levels”.

For Cellohexaose, in assay [1] (setting [4]), the “IC50, inhibition of binding of Biotinylated Heparin (10 μg/ml) to lipoprotein lipase” value was 12 µg/mL. Moreover, the “inhibitory activity on lipoprotein lipase binding to heparin/heparan sulfate, in words” value in assay [1] is given as “exhibited activity”.
